Publication PMC7687369 (Antiviral Research, 2020)

What was measured:
SARS-CoV-2 [1] = type: cell-based; conditions: Vero E6-hTMPRSS2 cells
SARS-CoV-2 [2] = experiment: Viral replication assay in Vero E6-hTMPRSS2 cells; type: cell-based
SARS-CoV-2 [3] = type: cell-based
SARS-CoV = conditions: cited from earlier work
MERS-CoV = conditions: cited from earlier work

For `CNc1ccc2oc(C[C@H]3O[C@@]4(CC[C@H]3C)O[C@H]([C@H](C)C(=O)c3ccc[nH]3)[C@H](C)C[C@H]4C)nc2c1C(=O)O` [Calcimycin], the “selectivity between viral-induced cytopathogenicity and inhibition of cell viability” value (SARS-CoV-2 [1]) was 18 fold.
With `CCN(CCO)CCCC(C)Nc1ccnc2cc(Cl)ccc12` (stereo not drawn) [Hydroxychloroquine] the “anti-viral activity in the cytopathogenic effect screen (in words)” value (SARS-CoV-2 [1]) was “negligible anti-viral activity”, the “inhibition of viral replication (in words)” value (SARS-CoV-2 [2]) was “did not efficiently inhibit viral replication” and the “antiviral activity, SARS-CoV-2 RNA (in words)” value (SARS-CoV-2 [3]) was “effective in wildtype Vero E6 cells at high micromolar concentrations”.
With `C[C@H](CCC(=O)O)C[C@H](C)C[C@H](C)C(=O)/C=C(\O)[C@H](C)C[C@H](C)C/C=C/[C@@H](C)[C@@H](O)[C@@H](C)[C@@H](O)C[C@@H]1CC[C@@](C)([C@H]2CC[C@@](C)([C@@H](C)O)O2)O1` [Ionomycin] the “selectivity between viral-induced cytopathogenicity and inhibition of cell viability” value (SARS-CoV-2 [1]) was 5 fold.
In the case of `CO[C@@H]1[C@@H](OC)[C@H](C)[C@@](O)(CC(=O)O)O[C@H]1[C@H](C)[C@H]1O[C@@]2(CC[C@@](C)([C@H]3CC[C@@](C)([C@@H]4O[C@@H]([C@H]5O[C@](C)(O)[C@H](C)C[C@@H]5C)C[C@@H]4O[C@@H]4C[C@H](OC)[C@@H](OC)[C@H](C)O4)O3)O2)C[C@H](O)[C@H]1C` [Maduramycin], the “selectivity between viral-induced cytopathogenicity and inhibition of cell viability” value (SARS-CoV-2 [1]) is reported as 313 fold.
In the case of `CC[C@@]1([C@@H]2O[C@@H]([C@H]3O[C@@](O)(CO)[C@H](C)C[C@@H]3C)C[C@@H]2C)CC[C@H]([C@]2(C)CC[C@]3(C[C@H](O)[C@@H](C)[C@@H]([C@@H](C)[C@@H](OC)[C@H](C)C(=O)O)O3)O2)O1` [Monensin], the “inhibition of the cytopathogenic effect of SARS-CoV” value (SARS-CoV) is listed as “but not SARS-CoV” and the “inhibition of the cytopathogenic effect of MERS-CoV” value (MERS-CoV) is listed as “could inhibit the cytopathogenic effect of MERS-CoV”.
In the case of `CCC(CC)COC(=O)[C@H](C)N[P@](=O)(OC[C@H]1O[C@@](C#N)(c2ccc3c(N)ncnn23)[C@H](O)[C@@H]1O)Oc1ccccc1` [Remdesivir], the “selectivity between viral-induced cytopathogenicity and inhibition of cell viability” value (SARS-CoV-2 [1]) is reported as > 67 fold.
In the case of `CC[C@@H](C(=O)[C@@H](C)[C@@H](O)[C@H](C)[C@@H]1O[C@@H]([C@@H](CC)C(=O)O)CC[C@@H]1C)[C@H]1O[C@]2(C=C[C@@H](O)[C@]3(CC[C@@](C)([C@H]4CC[C@](O)(CC)[C@H](C)O4)O3)O2)[C@H](C)C[C@@H]1C` [Salinomycin], the “inhibition of the cytopathogenic effect of SARS-CoV” value (SARS-CoV) is listed as “but not SARS-CoV”, the “inhibition of viral replication (in words)” value (SARS-CoV-2 [2]) is listed as “potent inhibition” and the “inhibition of the cytopathogenic effect of MERS-CoV” value (MERS-CoV) is listed as “could inhibit the cytopathogenic effect of MERS-CoV”.
